From US9463251B2, “Anti-ETBR antibodies and immunoconjugates” (Genentech, Inc., priority 2012, dated 2016) come the findings set out here.

Holding throughout (type): cell-based
What all share (conditions): five days, read-out: EC50 (free linker-drug, without antibody)

The test system of test [1] is Parental UACC-257X2.2 cells. As to the kind of experiment: In vitro cell proliferation (CellTiter-Glo), parental cells. How it is done:
(§1) In vitro cell proliferation of the cell lines in the presence of the immunoconjugates was assessed. Cells were plated at 1,500 cells per well in 50 μL of normal growth medium in 96-well clear-bottom plates. Twenty-four hours later, an additional 50 μL of culture medium with serial dilutions of immunoconjugates (ch5E9-vc-MMAE or control anti-gD-vc-MMAE) were added to triplicate wells. Five days later, cell survival was determined using CellTiter-Glo Luminescent Cell Viability Reagent (G7572, Promega Corporation, Madison, Wis.) using an EnVision 2101 Mutilabel Reader (Perkin-Elmer, Waltham, Mass.).
A general note: Cellular ATP, detected with luciferase, serves as a proxy for viable cell number.

Test [2] has as its system In vivo-derived resistant UACC-257X2.2 cells. As to the kind of experiment: In vitro cell proliferation (CellTiter-Glo), in vivo-derived resistant cells. How it is done: Tumor #359 was harvested and the cells were dissociated for growth in vitro (referred to herein as in vivo-derived resistant UACC-257X2.2 cells).
(§2) In vivo- and in vitro-derived resistant UACC-257X2.2 cells were then assayed for sensitivity to increasing concentrations of anti-ETBR-vc-MMAE.
as §1

The test system of test [3] is In vitro-derived resistant UACC-257X2.2 cells. As to the kind of experiment: In vitro cell proliferation (CellTiter-Glo), in vitro-derived resistant cells. How it is done:
For resistance developed in vitro, UACC-257X2.2 cells were adapted to increasing concentrations of anti-ETBR-vc-MMAE in culture dishes over the course of two months.
as §2, §1

Starred links: 1 amine or outer side, 2 acyl side, 3 side chain; linkers in the order of their positions; H or OH if unused. Non-standard residues stand in square brackets, D forms with d. Residues, ends and D or L forms follow the SMILES beside them. *: point of attachment. Dolaproine = CO[C@@H]([C@@H]1CCCN1)[C@@H](C)C(=O)O; Hexanoyl(6-maleimido) = O=C1C=CC(=O)N1CCCCCC(=O)*; Dil = CC[C@H](C)[C@H](NC)[C@@H](CC(=O)O)OC; PABC = O=C(OCc1ccc(N[*:1])cc1)[*:2]; X1 = C[C@@H](N*)[C@@H](O)c1ccccc1; Cit = NC(=O)NCCC[C@H](N)C(=O)O; NMeV = CN[C@H](C(=O)O)C(C)C

On to `CC[C@H](C)[C@@H]([C@@H](CC(=O)N1CCC[C@H]1[C@H](OC)[C@@H](C)C(=O)N[C@H](C)[C@@H](O)c1ccccc1)OC)N(C)C(=O)[C@@H](NC(=O)[C@H](C(C)C)N(C)C(=O)OCc1ccc(NC(=O)[C@H](CCCNC(N)=O)NC(=O)[C@@H](NC(=O)CCCCCN2C(=O)C=CC2=O)C(C)C)cc1)C(C)C` [MC-vc-PAB-MMAE] ({Hexanoyl(6-maleimido)}-V[Cit][PABC][NMeV]V[Dil][Dolaproine]-X1), for which the figures for the EC50 in test [1], in test [2] and in test [3] were 0.28 nM, 0.77 nM and 3.5 nM, respectively.

What is called EC50 is the concentration at which the effect is half-maximal.
